32 compounds from the supplement of paper PMC11616607 can be followed below.

For the first assay, the system named is OV90. In words: drug sensitivity score (DSS) from 5-point dose-response viability curve (DSS (area-under-curve based score)); higher = more sensitive (stronger growth inhibition or killing); extreme values may be limits of the assay. The note with it: exposure time: 72 h; concentration range: 5 concentrations over 10,000-fold range. Put shortly:
(§1)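 Ovarian cancer and normal ovarian cell lines were tested in 384-well plates. Drugs were acoustically dispensed (Echo 550) in DMSO or water at five concentrations spanning a 10,000-fold range, then 1,500 cells per well were added and incubated 3 days at 37°C, 5% CO2. Viability was read by CellTiter-Glo luminescence on a PHERAstar FS. Drug sensitivity score was derived per cell line and drug with Breeze software; higher means more sensitive, zero means no response.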
Compound `Cc1c(Cn2c(C)nc3c(C(=O)O)cc(N4CCOCC4)cc32)cccc1C(F)(F)F` yielded a drug sensitivity score of 0.

As to `Cc1ccc(C(=O)N(CCCN)[C@@H](c2oc3cc(Cl)ccc3c(=O)c2Cc2ccccc2)C(C)C)cc1`, the drug sensitivity score was 6.4.

As to `Cc1cccc(CC(=O)N2CCc3c2ccc(-c2cn(C)c4ncnc(N)c24)c3F)n1`, the drug sensitivity score was determined as 0.

`Cc1nc(Nc2n[nH]c3c2CN(C(=O)N[C@H](CN(C)C)c2ccccc2)C3(C)C)c2sccc2n1`: the drug sensitivity score was found to be 17.

`Cc1ncc(Cl)cc1NCc1ccc(C(=O)N[C@@H](CC2CCCC2)C(=O)NC2CC2)s1` showed a drug sensitivity score of 0.1.

As to `Cn1cc(-c2ccc(F)c(C(F)(F)F)c2)nc1C1CCN(c2ncnc3[nH]ncc23)CC1`, the drug sensitivity score came to 0.

`Cn1cc(C2=Nc3cc(NC(=O)C(N)C4CCCCC4)cc4c3C2=CNNC4=O)cn1` (stereo not drawn) registered a drug sensitivity score of 11.6.

With `N#Cc1ccc(COC[C@H]2O[C@@H](n3c(NCc4ccc(Cl)c(Cl)c4)nc4c(N)ncnc43)[C@H](O)[C@@H]2O)cc1`, the drug sensitivity score turned out to be 3.8.

Compound `NCC(=O)Nc1ccc(-n2nc(C(F)(F)F)cc2-c2ccc3c(ccc4ccccc43)c2)cc1` yielded a drug sensitivity score of 0.1.

The compound `NC[C@@](O)(c1ccc(Cl)cc1)c1ccc(-c2cn[nH]c2)cc1` returned a drug sensitivity score of 0.

For `Nc1nccc(-c2c(-c3ccc(F)cc3)ncn2C2CCCCC2)n1`, the drug sensitivity score was 0.

As to `Nc1ncnc2c1c(COc1cccc(Cl)c1)nn2C1CCOCC1`, the drug sensitivity score was determined as 0.

With `O=C(NOC[C@H](O)CO)c1ccc(F)c(F)c1Nc1ccc(I)cc1F`, the drug sensitivity score turned out to be 21.6.

`O=C(Nc1ccc2[nH]nc(-c3ccncc3)c2c1)[C@@H]1CCN(CC(=O)N2CCN(c3ccc(-c4ncccn4)cc3)CC2)C1` gave a drug sensitivity score of 23.5.

For `O=C(O)c1ccc(-c2c[nH]c3ncc(-c4ccccc4)cc23)cc1C1CCCC1`, the drug sensitivity score worked out at 1.2.

In turn, `O=C(O)c1ccc(CN2CCC(CN[C@@H]3C[C@H]3c3ccccc3)CC2)cc1` registered a drug sensitivity score of 0.

Another assay relates to OVCAR5. Described as above. The note with it: exposure time: 72 h; concentration range: 5 concentrations over 10,000-fold range. In short, it runs like this: as §1
Regarding `CC(C)(C)C[C@@H]1N[C@@H](C(=O)N[C@H]2CC[C@H](O)CC2)[C@H](c2cccc(Cl)c2F)[C@]12C(=O)Nc1cc(Cl)ccc12`, the drug sensitivity score turned out to be 0.4.

Compound `CC(C)Oc1ccc(C(=O)N[C@H](CNC(=O)CN(C)C)Cc2ccc(-c3cn4cccc([C@H](C)O)c4n3)cc2)cc1Cl` displayed a drug sensitivity score of 16.3.

In turn, `CC[C@@H]1[C@H](F)C(=O)N[C@@H]1COc1nccc2cc(C(N)=O)c(OC)cc12` displayed a drug sensitivity score of 0.6.

For the compound `CCc1cncnc1N1CCN(Cc2nc3ccc(C(F)(F)F)cc3[nH]2)CC1`, the drug sensitivity score stood at 2.8.

In turn, `CCn1c(-c2nonc2N)nc2cnc(Oc3cccc(NC(=O)c4ccc(OCCN5CCOCC5)cc4)c3)cc21` displayed a drug sensitivity score of 2.2.

The compound `CN(C)CC#Cc1ccc(OCCCc2sc(N3CCc4cccc(C(=O)Nc5nc6ccccc6s5)c4C3)nc2C(=O)O)c(F)c1` returned a drug sensitivity score of 4.1.

On to `CN(c1ncccc1CNc1nc(Nc2ccc3c(c2)CC(=O)N3)ncc1C(F)(F)F)S(C)(=O)=O`, for which the drug sensitivity score was determined as 6.1.

Regarding `CNC(=O)c1ccc(C)c(-n2c(C)cc(OCc3ccc(F)cc3F)c(Br)c2=O)c1`, the drug sensitivity score is 0.6.

In turn, `CNS(=O)(=O)Nc1nccc(Cc2c(C)c3ccc(Oc4ncccn4)cc3oc2=O)c1F` had a drug sensitivity score of 0.

`CNc1ncc2cc(-c3cc(NC(=O)NCCC(C)(C)C)c(F)cc3C)c(C)nc2n1` yielded a drug sensitivity score of 11.3.

`CO[C@@H](C)Cn1c(=O)n(C)c2cnc3ccc(-c4cncc(C(C)(C)O)c4)cc3c21` gave a drug sensitivity score of 8.7.

Compound `COc1ccc(Cn2ccc3ccc(C(=O)NO)cc32)cc1` displayed a drug sensitivity score of 0.7.

On to `C[C@@H](Oc1ccc2[nH]nc(/C=C/c3cnn(CCO)c3)c2c1)c1c(Cl)cncc1Cl`, for which the drug sensitivity score was 5.5.

In turn, `C[C@@H]1CN(CC(=O)Nc2ccc3c(c2)Cc2cccc(-c4cc(=O)cc(N5CCOCC5)o4)c2S3)C[C@H](C)O1` came in with a drug sensitivity score of 1.6.

As to `C[C@H]1C[C@@H](n2c(Nc3ccc(OC(F)(F)F)cc3)nc3cc(CCC(=O)O)ccc32)CC(C)(C)C1`, the drug sensitivity score amounted to 0.

With `Cc1c(-c2c(-c3ccc(F)o3)sc3ncnc(O[C@H](Cc4ccccc4OCc4ccnn4CC(F)(F)F)C(=O)O)c23)ccc(OCCN2CCN(C)CC2)c1Cl`, the drug sensitivity score was determined as 0.1.

The compound `Cc1c(Cn2c(C)nc3c(C(=O)O)cc(N4CCOCC4)cc32)cccc1C(F)(F)F` showed a drug sensitivity score of 0.

`Cc1ccc(C(=O)N(CCCN)[C@@H](c2oc3cc(Cl)ccc3c(=O)c2Cc2ccccc2)C(C)C)cc1`: the drug sensitivity score turned out to be 4.5.

`Cc1cccc(CC(=O)N2CCc3c2ccc(-c2cn(C)c4ncnc(N)c24)c3F)n1` displayed a drug sensitivity score of 0.

`Cc1nc(Nc2n[nH]c3c2CN(C(=O)N[C@H](CN(C)C)c2ccccc2)C3(C)C)c2sccc2n1` registered a drug sensitivity score of 14.9.

Regarding `Cc1ncc(Cl)cc1NCc1ccc(C(=O)N[C@@H](CC2CCCC2)C(=O)NC2CC2)s1`, the drug sensitivity score came out at 0.

In turn, `Cn1cc(-c2ccc(F)c(C(F)(F)F)c2)nc1C1CCN(c2ncnc3[nH]ncc23)CC1` returned a drug sensitivity score of 0.

`Cn1cc(C2=Nc3cc(NC(=O)C(N)C4CCCCC4)cc4c3C2=CNNC4=O)cn1` (stereo not drawn) showed a drug sensitivity score of 6.4.

`N#Cc1ccc(COC[C@H]2O[C@@H](n3c(NCc4ccc(Cl)c(Cl)c4)nc4c(N)ncnc43)[C@H](O)[C@@H]2O)cc1`: the drug sensitivity score turned out to be 4.4.

For `NCC(=O)Nc1ccc(-n2nc(C(F)(F)F)cc2-c2ccc3c(ccc4ccccc43)c2)cc1`, the drug sensitivity score worked out at 0.

On to `NC[C@@](O)(c1ccc(Cl)cc1)c1ccc(-c2cn[nH]c2)cc1`, for which the drug sensitivity score stood at 0.7.

The compound `Nc1nccc(-c2c(-c3ccc(F)cc3)ncn2C2CCCCC2)n1` came in with a drug sensitivity score of 1.9.

The compound `Nc1ncnc2c1c(COc1cccc(Cl)c1)nn2C1CCOCC1` returned a drug sensitivity score of 0.6.

In turn, `O=C(NOC[C@H](O)CO)c1ccc(F)c(F)c1Nc1ccc(I)cc1F` yielded a drug sensitivity score of 9.7.

As to `O=C(Nc1ccc2[nH]nc(-c3ccncc3)c2c1)[C@@H]1CCN(CC(=O)N2CCN(c3ccc(-c4ncccn4)cc3)CC2)C1`, the drug sensitivity score is 13.4.

`O=C(O)c1ccc(-c2c[nH]c3ncc(-c4ccccc4)cc23)cc1C1CCCC1` had a drug sensitivity score of 1.4.

Regarding `O=C(O)c1ccc(CN2CCC(CN[C@@H]3C[C@H]3c3ccccc3)CC2)cc1`, the drug sensitivity score came to 0.
